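Following 48 hours of exposure in 96-well plates, responses at five concentrations were used to interpolate endpoints linearly. GI50 is the concentration that inhibits growth by half. Definition used: TGI = concentration required for complete inhibition of growth.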
Legend:
Test in all cases: growth of human tumour cells (NCI), 48 h
EKVX NSCLC = tested on: EKVX NSCLC
UO-31 renal = tested on: UO-31 renal
A498 renal = tested on: A498 renal
SNB-75 CNS = tested on: SNB-75 CNS
OVCAR-4 ovarian = tested on: OVCAR-4 ovarian
HCC-2998 colon = tested on: HCC-2998 colon
LOX IMVI melanoma = tested on: LOX IMVI melanoma
MCF7 breast = tested on: MCF7 breast
NCI-H226 lung = tested on: NCI-H226 lung
DU-145 prostate = tested on: DU-145 prostate
BT-549 breast = tested on: BT-549 breast
HCT-15 colon = tested on: HCT-15 colon
A549 NSCLC = tested on: A549 NSCLC
SNB-19 CNS = tested on: SNB-19 CNS
MOLT-4 leukemia = tested on: MOLT-4 leukemia
OVCAR-5 ovarian = tested on: OVCAR-5 ovarian
SK-MEL-2 melanoma = tested on: SK-MEL-2 melanoma
RXF 393 renal = tested on: RXF 393 renal
HT29 colon = tested on: HT29 colon
NCI/ADR-RES ovarian = tested on: NCI/ADR-RES ovarian
CAKI-1 renal = tested on: CAKI-1 renal
SK-MEL-28 melanoma = tested on: SK-MEL-28 melanoma
SF-268 CNS = tested on: SF-268 CNS
T-47D breast = tested on: T-47D breast
MALME-3M melanoma = tested on: MALME-3M melanoma
MDA-MB-231 breast = tested on: MDA-MB-231 breast
OVCAR-8 ovarian = tested on: OVCAR-8 ovarian
UACC-257 melanoma = tested on: UACC-257 melanoma
KM12 colon = tested on: KM12 colon
786-0 renal = tested on: 786-0 renal
NCI-H23 lung = tested on: NCI-H23 lung
HCT-116 colon = tested on: HCT-116 colon
HS 578T breast = tested on: HS 578T breast
U251 CNS = tested on: U251 CNS
SF-539 CNS = tested on: SF-539 CNS
OVCAR-3 ovarian = tested on: OVCAR-3 ovarian
TK-10 renal = tested on: TK-10 renal
M14 melanoma = tested on: M14 melanoma
SF-295 CNS = tested on: SF-295 CNS
NCI-H460 lung = tested on: NCI-H460 lung
K-562 leukemia = tested on: K-562 leukemia
RPMI-8226 leukemia = tested on: RPMI-8226 leukemia
HOP-62 NSCLC = tested on: HOP-62 NSCLC
PC-3 prostate = tested on: PC-3 prostate
COLO 205 colon = tested on: COLO 205 colon
MDA-MB-435 = tested on: MDA-MB-435
SW-620 colon = tested on: SW-620 colon
SN12C renal = tested on: SN12C renal
CCRF-CEM leukemia = tested on: CCRF-CEM leukemia
HOP-92 NSCLC = tested on: HOP-92 NSCLC
SK-MEL-5 melanoma = tested on: SK-MEL-5 melanoma
NCI-H522 lung = tested on: NCI-H522 lung
SK-OV-3 ovarian = tested on: SK-OV-3 ovarian
SR leukemia = tested on: SR leukemia
IGROV1 ovarian = tested on: IGROV1 ovarian
UACC-62 melanoma = tested on: UACC-62 melanoma
HL-60(TB) leukemia = tested on: HL-60(TB) leukemia
ACHN renal = tested on: ACHN renal

What does the source list for `CC1(C)OC2C(COS(N)(=O)=O)SC(n3cnc4cncnc43)C2O1` (stereo unspecified)?
GI50 (EKVX NSCLC): > 100 µM; TGI (EKVX NSCLC): > 100 µM; GI50 (UO-31 renal): > 100 µM; TGI (UO-31 renal): > 100 µM; GI50 (A498 renal): > 100 µM; TGI (A498 renal): > 100 µM; GI50 (SNB-75 CNS): > 100 µM; TGI (SNB-75 CNS): > 100 µM; GI50 (OVCAR-4 ovarian): > 100 µM; TGI (OVCAR-4 ovarian): > 100 µM; GI50 (HCC-2998 colon): > 100 µM; TGI (HCC-2998 colon): > 100 µM; GI50 (LOX IMVI melanoma): > 100 µM; TGI (LOX IMVI melanoma): > 100 µM; GI50 (MCF7 breast): > 100 µM; TGI (MCF7 breast): > 100 µM; GI50 (NCI-H226 lung): > 100 µM; TGI (NCI-H226 lung): > 100 µM; GI50 (DU-145 prostate): > 100 µM; TGI (DU-145 prostate): > 100 µM; GI50 (BT-549 breast): > 100 µM; TGI (BT-549 breast): > 100 µM; GI50 (HCT-15 colon): > 100 µM; TGI (HCT-15 colon): > 100 µM; GI50 (A549 NSCLC): > 100 µM; TGI (A549 NSCLC): > 100 µM; GI50 (SNB-19 CNS): > 100 µM; TGI (SNB-19 CNS): > 100 µM; GI50 (MOLT-4 leukemia): > 100 µM; TGI (MOLT-4 leukemia): > 100 µM; GI50 (OVCAR-5 ovarian): > 100 µM; TGI (OVCAR-5 ovarian): > 100 µM; GI50 (SK-MEL-2 melanoma): > 100 µM; TGI (SK-MEL-2 melanoma): > 100 µM; GI50 (RXF 393 renal): > 100 µM; TGI (RXF 393 renal): > 100 µM; GI50 (HT29 colon): > 100 µM; TGI (HT29 colon): > 100 µM; GI50 (NCI/ADR-RES ovarian): > 100 µM; TGI (NCI/ADR-RES ovarian): > 100 µM; GI50 (CAKI-1 renal): > 100 µM; TGI (CAKI-1 renal): > 100 µM; GI50 (SK-MEL-28 melanoma): > 100 µM; TGI (SK-MEL-28 melanoma): > 100 µM; GI50 (SF-268 CNS): > 100 µM; TGI (SF-268 CNS): > 100 µM; GI50 (T-47D breast): > 100 µM; TGI (T-47D breast): > 100 µM; GI50 (MALME-3M melanoma): > 100 µM; TGI (MALME-3M melanoma): > 100 µM; GI50 (MDA-MB-231 breast): > 100 µM; TGI (MDA-MB-231 breast): > 100 µM; GI50 (OVCAR-8 ovarian): > 100 µM; TGI (OVCAR-8 ovarian): > 100 µM; GI50 (UACC-257 melanoma): > 100 µM; TGI (UACC-257 melanoma): > 100 µM; GI50 (KM12 colon): > 100 µM; TGI (KM12 colon): > 100 µM; GI50 (786-0 renal): > 100 µM; TGI (786-0 renal): > 100 µM; GI50 (NCI-H23 lung): > 100 µM; TGI (NCI-H23 lung): > 100 µM; GI50 (HCT-116 colon): > 100 µM; TGI (HCT-116 colon): > 100 µM; GI50 (HS 578T breast): > 100 µM; TGI (HS 578T breast): > 100 µM; GI50 (U251 CNS): > 100 µM; TGI (U251 CNS): > 100 µM; GI50 (SF-539 CNS): > 100 µM; TGI (SF-539 CNS): > 100 µM; GI50 (OVCAR-3 ovarian): > 100 µM; TGI (OVCAR-3 ovarian): > 100 µM; GI50 (TK-10 renal): > 100 µM; TGI (TK-10 renal): > 100 µM; GI50 (M14 melanoma): > 100 µM; TGI (M14 melanoma): > 100 µM; GI50 (SF-295 CNS): > 100 µM; TGI (SF-295 CNS): > 100 µM; GI50 (NCI-H460 lung): > 100 µM; TGI (NCI-H460 lung): > 100 µM; GI50 (K-562 leukemia): > 100 µM; TGI (K-562 leukemia): > 100 µM; GI50 (RPMI-8226 leukemia): > 100 µM; TGI (RPMI-8226 leukemia): > 100 µM; GI50 (HOP-62 NSCLC): > 100 µM; TGI (HOP-62 NSCLC): > 100 µM; GI50 (PC-3 prostate): > 100 µM; TGI (PC-3 prostate): > 100 µM; GI50 (COLO 205 colon): > 100 µM; TGI (COLO 205 colon): > 100 µM; GI50 (MDA-MB-435): > 100 µM; TGI (MDA-MB-435): > 100 µM; GI50 (SW-620 colon): > 100 µM; TGI (SW-620 colon): > 100 µM; GI50 (SN12C renal): > 100 µM; TGI (SN12C renal): > 100 µM; GI50 (CCRF-CEM leukemia): > 100 µM; TGI (CCRF-CEM leukemia): > 100 µM; GI50 (HOP-92 NSCLC): > 100 µM; TGI (HOP-92 NSCLC): > 100 µM; GI50 (SK-MEL-5 melanoma): > 100 µM; TGI (SK-MEL-5 melanoma): > 100 µM; GI50 (NCI-H522 lung): > 100 µM; TGI (NCI-H522 lung): > 100 µM; GI50 (SK-OV-3 ovarian): > 100 µM; TGI (SK-OV-3 ovarian): > 100 µM; GI50 (SR leukemia): > 100 µM; TGI (SR leukemia): > 100 µM; GI50 (IGROV1 ovarian): > 100 µM; TGI (IGROV1 ovarian): > 100 µM; GI50 (UACC-62 melanoma): > 100 µM; TGI (UACC-62 melanoma): > 100 µM; GI50 (HL-60(TB) leukemia): > 100 µM; TGI (HL-60(TB) leukemia): > 100 µM; GI50 (ACHN renal): > 100 µM; TGI (ACHN renal): > 100 µM
